Experimental data from PubChem BioAssay AID1259407 (Chemical Carcinogenesis Research Information System (CCRIS), 2018).
The source made the active and inactive calls. How the calls were made is not given here.

System: CCRIS mutagenicity, Ames/micronucleus/aberration tests
Assay: CCRIS mutagenicity studies

Measured: mutagenic call

Cc1ccc(C(=O)c2cc(O)c(O)c([N+](=O)[O-])c2)cc1
inactive: Test System: AMES SALMONELLA TYPHIMURIUM, Strain/Indicator: TA97, Metabolic Activation: NONE, Method: PREINCUBATION inactive; negative | Test System: AMES SALMONELLA TYPHIMURIUM, Strain/Indicator: TA97, Metabolic Activation: NONE, Method: STANDARD PLATE inactive; negative | Test System: AMES SALMONELLA TYPHIMURIUM, Strain/Indicator: TA97, Metabolic Activation: RAT, LIVER, S-9, PHENOBARBITAL AND BETA-NAPHTHOFLAVONE, Method: PREINCUBATION inactive; negative | Test System: AMES SALMONELLA TYPHIMURIUM, Strain/Indicator: TA97, Metabolic Activation: RAT, LIVER, S-9, PHENOBARBITAL AND BETA-NAPHTHOFLAVONE, Method: STANDARD PLATE inactive; negative | Test System: AMES SALMONELLA TYPHIMURIUM, Strain/Indicator: TA98, Metabolic Activation: NONE, Method: PREINCUBATION inactive; negative | Test System: AMES SALMONELLA TYPHIMURIUM, Strain/Indicator: TA98, Metabolic Activation: NONE, Method: STANDARD PLATE inactive; negative | Test System: AMES SALMONELLA TYPHIMURIUM, Strain/Indicator: TA98, Metabolic Activation: RAT, LIVER, S-9, PHENOBARBITAL AND BETA-NAPHTHOFLAVONE, Method: PREINCUBATION inactive; negative | Test System: AMES SALMONELLA TYPHIMURIUM, Strain/Indicator: TA98, Metabolic Activation: RAT, LIVER, S-9, PHENOBARBITAL AND BETA-NAPHTHOFLAVONE, Method: STANDARD PLATE inactive; negative | Test System: AMES SALMONELLA TYPHIMURIUM, Strain/Indicator: TA100, Metabolic Activation: NONE, Method: PREINCUBATION inactive; negative | Test System: AMES SALMONELLA TYPHIMURIUM, Strain/Indicator: TA100, Metabolic Activation: NONE, Method: STANDARD PLATE inactive; negative | Test System: AMES SALMONELLA TYPHIMURIUM, Strain/Indicator: TA100, Metabolic Activation: RAT, LIVER, S-9, PHENOBARBITAL AND BETA-NAPHTHOFLAVONE, Method: PREINCUBATION inactive; negative | Test System: AMES SALMONELLA TYPHIMURIUM, Strain/Indicator: TA100, Metabolic Activation: RAT, LIVER, S-9, PHENOBARBITAL AND BETA-NAPHTHOFLAVONE, Method: STANDARD PLATE inactive; negative | Test System: AMES SALMONELLA TYPHIMURIUM, Strain/Indicator: TA102, Metabolic Activation: NONE, Method: PREINCUBATION inactive; negative | Test System: AMES SALMONELLA TYPHIMURIUM, Strain/Indicator: TA102, Metabolic Activation: NONE, Method: STANDARD PLATE inactive; negative | Test System: AMES SALMONELLA TYPHIMURIUM, Strain/Indicator: TA102, Metabolic Activation: RAT, LIVER, S-9, PHENOBARBITAL AND BETA-NAPHTHOFLAVONE, Method: PREINCUBATION inactive; negative | Test System: AMES SALMONELLA TYPHIMURIUM, Strain/Indicator: TA102, Metabolic Activation: RAT, LIVER, S-9, PHENOBARBITAL AND BETA-NAPHTHOFLAVONE, Method: STANDARD PLATE inactive; negative | Test System: AMES SALMONELLA TYPHIMURIUM, Strain/Indicator: TA1535, Metabolic Activation: NONE, Method: PREINCUBATION inactive; negative | Test System: AMES SALMONELLA TYPHIMURIUM, Strain/Indicator: TA1535, Metabolic Activation: NONE, Method: STANDARD PLATE inactive; negative | Test System: AMES SALMONELLA TYPHIMURIUM, Strain/Indicator: TA1535, Metabolic Activation: RAT, LIVER, S-9, PHENOBARBITAL AND BETA-NAPHTHOFLAVONE, Method: PREINCUBATION inactive; negative | Test System: AMES SALMONELLA TYPHIMURIUM, Strain/Indicator: TA1535, Metabolic Activation: RAT, LIVER, S-9, PHENOBARBITAL AND BETA-NAPHTHOFLAVONE, Method: STANDARD PLATE inactive; negative | Test System: AMES SALMONELLA TYPHIMURIUM, Strain/Indicator: TA1537, Metabolic Activation: NONE, Method: PREINCUBATION inactive; negative | Test System: AMES SALMONELLA TYPHIMURIUM, Strain/Indicator: TA1537, Metabolic Activation: NONE, Method: STANDARD PLATE inactive; negative | Test System: AMES SALMONELLA TYPHIMURIUM, Strain/Indicator: TA1537, Metabolic Activation: RAT, LIVER, S-9, PHENOBARBITAL AND BETA-NAPHTHOFLAVONE, Method: PREINCUBATION inactive; negative | Test System: AMES SALMONELLA TYPHIMURIUM, Strain/Indicator: TA1537, Metabolic Activation: RAT, LIVER, S-9, PHENOBARBITAL AND BETA-NAPHTHOFLAVONE, Method: STANDARD PLATE inactive; negative | Test System: AMES SALMONELLA TYPHIMURIUM, Strain/Indicator: TA1538, Metabolic Activation: NONE, Method: PREINCUBATION inactive; negative | Test System: AMES SALMONELLA TYPHIMURIUM, Strain/Indicator: TA1538, Metabolic Activation: NONE, Method: STANDARD PLATE inactive; negative | Test System: AMES SALMONELLA TYPHIMURIUM, Strain/Indicator: TA1538, Metabolic Activation: RAT, LIVER, S-9, PHENOBARBITAL AND BETA-NAPHTHOFLAVONE, Method: PREINCUBATION inactive; negative | Test System: AMES SALMONELLA TYPHIMURIUM, Strain/Indicator: TA1538, Metabolic Activation: RAT, LIVER, S-9, PHENOBARBITAL AND BETA-NAPHTHOFLAVONE, Method: STANDARD PLATE inactive; negative | Test System: CHINESE HAMSTER V-79, Strain/Indicator: V-79 (HPRT)/6-THIOGUANINE, Metabolic Activation: NONE, Method: SUSPENSION/PLATE inactive; negative | Test System: CHINESE HAMSTER V-79, Strain/Indicator: V-79 (HPRT)/6-THIOGUANINE, Metabolic Activation: RAT, LIVER, S-9, AROCLOR 1254, Method: SUSPENSION/PLATE inactive; negative | Test System: E. COLI, Strain/Indicator: WP2 UVRA, Metabolic Activation: NONE, Method: PREINCUBATION inactive; negative | Test System: E. COLI, Strain/Indicator: WP2 UVRA, Metabolic Activation: NONE, Method: STANDARD PLATE inactive; negative | Test System: E. COLI, Strain/Indicator: WP2 UVRA, Metabolic Activation: RAT, LIVER, S-9, PHENOBARBITAL AND BETA-NAPHTHOFLAVONE, Method: PREINCUBATION inactive; negative | Test System: E. COLI, Strain/Indicator: WP2 UVRA, Metabolic Activation: RAT, LIVER, S-9, PHENOBARBITAL AND BETA-NAPHTHOFLAVONE, Method: STANDARD PLATE inactive; negative | Test System: UDS RAT HEPATOCYTES, Strain/Indicator: THY INCORP, Metabolic Activation: NONE, Method: AUTORADIOGRAPHY inactive; negative
